One assay addresses T1, human TRPV1 (Homo sapiens, UniProt Q8NER1).
T1 construct: expressed in transfected cells; host or cells: HEK293 (hTRPV1/HEK293), zeocin selection
As to the kind of experiment: Functional assay: block of capsaicin-induced Ca2+ influx, human assay (hTRPV1/HEK293, FLIPR). The conditions noted are these: hTRPV1/HEK293 cells, 150 nM capsaicin challenge, Fluo-3 fluorescence; mean; > value = solubility limit in assay medium. The assay is classed as cell-based. The procedure, abridged:
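HEK293 cells stably expressing human TRPV1, fluo3-loaded, preincubated 30 min with compound (serial 3-fold dilutions from 10 μM, duplicate) in 20 μM Ca2+ buffer. Capsaicin response taken as fluo3 fluorescence change before vs 100 s after agonist; IC50 by non-linear regression, mean values; free base or TFA salt.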

The next assay concerns the target T2, rat TRPV1 (Rattus norvegicus, UniProt O35433).
T2 construct: expressed in transfected cells; host or cells: HEK293 (rTRPV1/HEK293), geneticin selection
As to the kind of experiment: Functional assay: block of capsaicin-induced Ca2+ influx, rat assay (rTRPV1/HEK293, FLIPR). Format: cell-based. The conditions noted are these: rTRPV1/HEK293 cells, capsaicin challenge, Fluo-3 fluorescence; mean; > value = solubility limit in assay medium. The procedure, abridged:
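HEK293 cells expressing rat TRPV1, loaded with fluo3 and preincubated 30 min with compound in 20 μM Ca2+ buffer before capsaicin challenge. Block read as fluo3 fluorescence change over 100 s after agonist, 3-fold series from 10 μM in duplicate. IC50 by non-linear regression, mean values.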

T2 sequence (O35433 whole entry): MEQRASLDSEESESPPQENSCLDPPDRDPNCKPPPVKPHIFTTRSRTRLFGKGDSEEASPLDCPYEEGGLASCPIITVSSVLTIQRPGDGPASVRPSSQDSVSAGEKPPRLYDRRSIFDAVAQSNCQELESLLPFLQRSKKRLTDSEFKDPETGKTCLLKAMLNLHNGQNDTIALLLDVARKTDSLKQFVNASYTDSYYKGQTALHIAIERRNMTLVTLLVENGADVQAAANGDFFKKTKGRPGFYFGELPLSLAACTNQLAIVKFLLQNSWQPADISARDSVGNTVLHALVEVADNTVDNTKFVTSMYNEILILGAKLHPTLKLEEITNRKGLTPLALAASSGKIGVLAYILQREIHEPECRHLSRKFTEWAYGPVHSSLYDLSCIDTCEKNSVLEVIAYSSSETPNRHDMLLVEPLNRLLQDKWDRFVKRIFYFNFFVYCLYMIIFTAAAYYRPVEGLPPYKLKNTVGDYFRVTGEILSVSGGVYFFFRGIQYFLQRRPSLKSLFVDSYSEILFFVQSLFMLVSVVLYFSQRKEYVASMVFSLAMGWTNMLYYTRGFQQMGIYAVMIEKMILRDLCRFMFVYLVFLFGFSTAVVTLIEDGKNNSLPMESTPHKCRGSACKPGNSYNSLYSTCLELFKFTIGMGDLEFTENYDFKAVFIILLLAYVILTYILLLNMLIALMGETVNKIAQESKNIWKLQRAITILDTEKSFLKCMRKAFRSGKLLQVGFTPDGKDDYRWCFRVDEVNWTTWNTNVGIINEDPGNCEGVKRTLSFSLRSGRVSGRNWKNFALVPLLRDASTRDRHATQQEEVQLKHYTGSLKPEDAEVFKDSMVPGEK
T1 sequence (Q8NER1 whole entry): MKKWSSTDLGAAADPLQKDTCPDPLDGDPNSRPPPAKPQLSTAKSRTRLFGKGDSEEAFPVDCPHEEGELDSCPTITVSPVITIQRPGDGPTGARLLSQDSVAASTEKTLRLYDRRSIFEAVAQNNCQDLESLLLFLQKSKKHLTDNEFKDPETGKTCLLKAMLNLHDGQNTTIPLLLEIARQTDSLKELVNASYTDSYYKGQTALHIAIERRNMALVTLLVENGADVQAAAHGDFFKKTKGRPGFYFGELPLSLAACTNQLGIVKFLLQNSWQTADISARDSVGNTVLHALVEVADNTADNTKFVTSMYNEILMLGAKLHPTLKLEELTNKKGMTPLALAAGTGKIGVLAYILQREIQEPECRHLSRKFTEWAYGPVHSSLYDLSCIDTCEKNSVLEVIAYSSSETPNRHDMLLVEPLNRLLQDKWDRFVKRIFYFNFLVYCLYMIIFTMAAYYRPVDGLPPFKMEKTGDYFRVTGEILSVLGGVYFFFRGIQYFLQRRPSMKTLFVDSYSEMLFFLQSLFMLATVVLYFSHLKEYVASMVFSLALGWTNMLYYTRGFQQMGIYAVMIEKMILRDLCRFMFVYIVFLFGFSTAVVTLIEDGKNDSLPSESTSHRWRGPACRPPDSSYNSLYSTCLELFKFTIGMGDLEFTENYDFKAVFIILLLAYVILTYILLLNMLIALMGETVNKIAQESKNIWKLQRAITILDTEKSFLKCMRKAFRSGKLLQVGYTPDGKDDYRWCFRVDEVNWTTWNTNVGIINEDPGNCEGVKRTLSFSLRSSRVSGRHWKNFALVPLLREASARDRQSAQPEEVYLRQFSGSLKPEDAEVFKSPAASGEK

In the case of `CC(C)OC(=O)C(C)(C)c1ccc(Nc2ncnc3sc(Nc4c(Cl)cccc4Cl)nc23)cc1` [Example 231, 1-Methylethyl 2-[4-({2-[(2,6-dichlorophenyl)amino][1,3]thiazolo[5,4-d]pyrimidin-7-yl}amino)phenyl]-2-methylpropanoate], the IC50 (usually the concentration that inhibits the measured activity by half) on human TRPV1 was determined as 698 nM; against rat TRPV1 it was 81 nM.
For `Cc1cccc(C)c1Nc1nc2c(Nc3ccc(OC4CCOC4)cc3)ncnc2s1` (racemic) [Example 154, (racemic)-N^2-(2,6-Dimethyl-phenyl)-N^7-[4-(tetrahydro-furan-3-yloxy)-phenyl]-thiazolo[5,4-d]pyrimidine-2,7-diamine], the IC50 on human TRPV1 came out at 1520 nM; at rat TRPV1, 1860 nM.
As to `COC[C@@H]1CCCN1c1nc(Nc2ccc(C(F)(F)F)cc2)c2nc(Nc3c(Cl)cccc3Cl)sc2n1` [Example 193, (2S)-N^2-(2,6-Dichloro-phenyl)-5-(2-methoxymethyl-pyrrolidin-1-yl)-N^7-(4-trifluoromethyl-phenyl)-thiazolo[5,4-d]pyrimidine-2,7-diamine], the IC50 at human TRPV1 was found to be 35 nM; on rat TRPV1, 36 nM.
For `C[C@H]1COCCN1c1nc(Nc2ccc(C(F)(F)F)cc2)c2nc(Nc3c(Cl)cccc3Cl)sc2n1` [Example 192, (3S)-N^2-(2,6-Dichloro-phenyl)-5-(3-methyl-morpholin-4-yl)-N^7-(4-trifluoromethyl-phenyl)-thiazolo[5,4-d]pyrimidine-2,7-diamine] the same measures were 63 nM and 19 nM.
On to `CC1CCCN1c1nc(Nc2ccc(C(F)(F)F)c(Cl)c2)c2nc(Nc3c(Cl)cccc3Cl)sc2n1` (racemic) [Example 130, (racemic)-N^7-(3-Chloro-4-trifluoromethyl-phenyl)-N^2-(2,6-dichloro-phenyl)-5-(2-methyl-pyrrolidin-1-yl)-thiazolo[5,4-d]pyrimidine-2,7-diamine], for which the IC50 against human TRPV1 was found to be 170 nM; against rat TRPV1, 87 nM.
For `CSc1ccc(Nc2ncnc3sc(Nc4c(C)cccc4C)nc23)cc1` [Example 120, N^2-(2,6-Dimethyl-phenyl)-N^7-(4-methylsulfanyl-phenyl)-thiazolo[5,4-d]pyrimidine-2,7-diamine] the same measures were 64 nM and 15 nM.
For `CS(=O)(=O)c1ccc(Nc2ncnc3sc(Nc4ccccc4C(F)(F)F)nc23)cc1` [Example 226, N^7-[4-(Methylsulfonyl)phenyl]-N^2-[2-(trifluoromethyl)phenyl][1,3]thiazolo[5,4-d]pyrimidine-2,7-diamine], the IC50 at human TRPV1 amounted to 567 nM; against rat TRPV1, 135 nM.
The corresponding values for `OCC1CN(c2nc(Nc3ccc(C(F)(F)F)cc3)c3nc(Nc4c(Cl)cccc4Cl)sc3n2)CCO1` (racemic) [Example 146, (racemic)-{4-[2-(2,6-Dichloro-phenylamino)-7-(4-trifluoromethyl-phenylamino)-thiazolo[5,4-d]pyrimidin-5-yl]-morpholin-2-yl}-methanol] are 646 nM and 319 nM.
The corresponding values for `CC1CCCN1c1nc(Nc2ccc(S(C)(=O)=O)cc2)c2nc(Nc3c(Cl)cccc3Cl)sc2n1` (racemic) [Example 117, (racemic)-N^2-(2,6-Dichloro-phenyl)-N^7-(4-methanesulfonyl-phenyl)-5-(2-methyl-pyrrolidin-1-yl)-thiazolo[5,4-d]pyrimidine-2,7-diamine] are 50 nM and 7 nM.
As to `COc1cc(CNc2ncnc3sc(Nc4c(C)cccc4C)nc23)ccc1O` [Example 38, 4-{[2-(2,6-Dimethyl-phenylamino)-thiazolo[5,4-d]pyrimidin-7-ylamino]-methyl}-2-methoxy-phenol], the IC50 is above 20000 nM on human TRPV1 and 7130 nM against rat TRPV1.
The corresponding values for `CC(C)C1CCCN1c1nc(Nc2ccc(C(F)(F)F)c(Cl)c2)c2nc(Nc3c(Cl)cccc3Cl)sc2n1` (racemic) [Example 118, (racemic)-N^7-(3-Chloro-4-trifluoromethyl-phenyl)-N^2-(2,6-dichloro-phenyl)-5-(2-isopropyl-pyrrolidin-1-yl)-thiazolo[5,4-d]pyrimidine-2,7-diamine] are 56 nM and 18 nM.
As for `Cc1cccc(C)c1Nc1nc2c(Nc3ccc(S(=O)(=O)C(C)C)cc3)ncnc2s1` [Example 122, N^2-(2,6-Dimethyl-phenyl)-N^7-[4-(Propane-2-sulfonyl)-phenyl]-thiazolo[5,4-d]pyrimidine-2,7-diamine], the results for the IC50 against human TRPV1 and on rat TRPV1 were 87 nM and 129 nM, respectively.
For `Cc1nc(Nc2ccc(C(F)(F)F)cc2)c2nc(Nc3ccccc3[N+](=O)[O-])sc2n1` [Example 206, 5-Methyl-N^2-(2-nitro-phenyl)-N^7-(4-trifluoromethyl-phenyl)-thiazolo[5,4-d]pyrimidine-2,7-diamine] the same measures were 2470 nM and 1710 nM.
Consider `Cc1cccc(C)c1Nc1nc2c(Nc3ccc(C#N)c(C(F)(F)F)c3)ncnc2s1` [Example 149, 4-[2-(2,6-Dimethyl-phenylamino)-thiazolo[5,4-d]pyrimidin-7-ylamino]-2-trifluoromethyl-benzonitrile], for which the IC50 against human TRPV1 amounted to 737 nM; on rat TRPV1, 257 nM.
As for `O=C(O)c1cc(Cl)c(Nc2nc3c(Nc4ccc(C(F)(F)F)cc4)ncnc3s2)c(Cl)c1` [Example 243, 3,5-Dichloro-4-[7-(4-trifluoromethyl-phenylamino)-thiazolo[5,4-d]pyrimidin-2-ylamino]-benzoic acid], the IC50 at human TRPV1 was 4610 nM; on rat TRPV1, 6540 nM.
`CN1CCN(c2nc(Nc3ccc(C(F)(F)F)cc3)c3nc(Nc4c(Cl)cccc4Cl)sc3n2)CC1` [Example 187, N^2-(2,6-Dichloro-phenyl)-5-(4-methyl-piperazin-1-yl)-N^7-(4-trifluoromethyl-phenyl)-thiazolo[5,4-d]pyrimidine-2,7-diamine]: the values for the IC50 on human TRPV1 and against rat TRPV1 were 809 nM and 1320 nM, respectively.
In the case of `Cc1cccc(C)c1Nc1nc2c(Nc3ccc(C(C)(C)C)cc3)ncnc2s1` [Example 12, N^7-(4-tert-Butyl-phenyl)-N^2-(2,6-dimethyl-phenyl)-thiazolo[5,4-d]pyrimidine-2,7-diamine], the IC50 against human TRPV1 is 30 nM; against rat TRPV1 it was 4 nM.
For `Cc1nc(Nc2ccc3c(c2)N(C)CCC3)c2nc(Nc3c(Cl)cccc3Cl)sc2n1` [Example 139, N^2-(2,6-Dichloro-phenyl)-5-methyl-N^7-(1-methyl-1,2,3,4-tetrahydro-quinolin-7-yl)-thiazolo[5,4-d]pyrimidine-2,7-diamine] the same measures were 280 nM and 78 nM.
The corresponding values for `O=S(=O)(c1ccc(Nc2ncnc3sc(Nc4c(Cl)cccc4Cl)nc23)cc1)N1CCCC1` [Example 76, N^2-(2,6-Dichloro-phenyl)-N^7-[4-(pyrrolidine-1-sulfonyl)-phenyl]-thiazolo[5,4-d]pyrimidine-2,7-diamine] are 1 nM and 1 nM.
Regarding `Cc1nc(Nc2ccc(SC(F)(F)F)c(Cl)c2)c2nc(Nc3c(C)cccc3C)sc2n1` [Example 131, N^7-(3-Chloro-4-trifluoromethylsulfanyl-phenyl)-N^2-(2,6-dimethyl-phenyl)-5-methyl-thiazolo[5,4-d]pyrimidine-2,7-diamine], the values for the IC50 at human TRPV1 and against rat TRPV1 were 171 nM and 140 nM, respectively.
For `COc1ccc(Nc2ncnc3sc(Nc4c(C)cccc4C)nc23)cc1` [Example 33, N^2-(2,6-Dimethyl-phenyl)-N^7-(4-methoxy-phenyl)-thiazolo[5,4-d]pyrimidine-2,7-diamine] the same measures were 205 nM and 70 nM.
For `CSc1ccc(Nc2nc(C)nc3sc(Nc4c(Cl)cccc4Cl)nc23)cn1` [Example 185, N^2-(2,6-Dichloro-phenyl)-5-methyl-N^7-(6-methylsulfanyl-pyridin-3-yl)-thiazolo[5,4-d]pyrimidine-2,7-diamine], the IC50 against human TRPV1 is 31 nM; against rat TRPV1, 32 nM.
The corresponding values for `Cc1nc(Nc2ccc(S(=O)(=O)C(F)(F)F)cc2)c2nc(Nc3c(Cl)cccc3Cl)sc2n1` [Example 77, N^2-(2,6-Dichloro-phenyl)-5-methyl-N^7-(4-trifluoromethanesulfonyl-phenyl)-thiazolo[5,4-d]pyrimidine-2,7-diamine] are 1 nM and 2 nM.
The corresponding values for `Cc1nc(N(C)c2ccc(C(F)(F)F)cc2)c2nc(Nc3c(Cl)cccc3Cl)sc2n1` [Example 9, N^2-(2,6-Dichloro-phenyl)-5,N^7-dimethyl-N^7-(4-trifluoromethyl-phenyl)-thiazolo[5,4-d]pyrimidine-2,7-diamine] are above 20000 nM and above 20000 nM.
For `Cc1cccc(C)c1Nc1nc2c(Nc3ccc(C(C)C)cc3)ncnc2s1` [Example 46, N^2-(2,6-Dimethyl-phenyl)-N^7-(4-isopropyl-phenyl)-thiazolo[5,4-d]pyrimidine-2,7-diamine] the same measures were 8 nM and 5 nM.
Take `Cc1noc(C)c1Nc1nc2c(Nc3ccc(S(=O)(=O)N4CCOCC4)cc3)ncnc2s1` [Example 221, N^2-(3,5-Dimethylisoxazol-4-yl)-N^7-[4-(morpholin-4-ylsulfonyl)phenyl][1,3]thiazolo[5,4-d]pyrimidine-2,7-diamine]: the values for the IC50 on human TRPV1 and against rat TRPV1 were 1080 nM and 271 nM, respectively.

Values taken from patent US20080004253A1, “Thiazolopyrimidine modulators of TRPV1” (priority 2006, published 2008).
